Source: ChEMBL document CHEMBL1201862, “PubChem BioAssay data set” (2004)
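Following 48 hours of exposure in 96-well plates, responses at five concentrations were used to interpolate endpoints linearly. GI50: concentration for 50% inhibition of growth.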 Calls of active or inactive are those of the source. Cut-off read from the data, not from the text of the source: active = GI50 up to about 1.1 µM and inactive = higher.

Assays:
Assay in all cases: DTP human tumour cell line panel, 48 h
[1] = test system: 786-0
[2] = test system: A549
[3] = test system: ACHN
[4] = test system: CAKI-1
[5] = test system: CCRF-CEM
[6] = test system: COLO 205
[7] = test system: DLD-1
[8] = test system: DMS-114
[9] = test system: DMS-273
[10] = test system: EKVX
[11] = test system: HCC 2998
[12] = test system: HCT-116
[13] = test system: HCT-15
[14] = test system: HL-60
[15] = test system: HOP-18
[16] = test system: HOP-62
[17] = test system: HOP-92
[18] = test system: HT-29
[19] = test system: IGROV-1
[20] = test system: K562
[21] = test system: KM-20L2
[22] = test system: KM12
[23] = test system: LOX IMVI
[24] = test system: LXFL 529
[25] = test system: M14
[26] = test system: M19-MEL
[27] = test system: MOLT-4
[28] = test system: Malme-3M
[29] = test system: NCI-H226
[30] = test system: NCI-H23
[31] = test system: NCI-H460
[32] = test system: NCI-H522
[33] = test system: OVCAR-3
[34] = test system: OVCAR-4
[35] = test system: OVCAR-5
[36] = test system: OVCAR-8
[37] = test system: RPMI-8226
[38] = test system: RXF 393
[39] = test system: SF-268
[40] = test system: SF-295
[41] = test system: SF-539
[42] = test system: SK-MEL-28
[43] = test system: SK-MEL-2
[44] = test system: SK-MEL-5
[45] = test system: SK-OV-3
[46] = test system: SN12C
[47] = test system: SNB-19
[48] = test system: SNB-75
[49] = test system: SNB-78
[50] = test system: SR
[51] = test system: SW-620
[52] = test system: TK-10
[53] = test system: U-251
[54] = test system: UACC-257
[55] = test system: UACC-62
[56] = test system: A498
[57] = test system: UO-31
[58] = test system: XF498

Structure (SMILES): N/N=C(\CCN1CCCC1)CC(c1ccccc1)c1c(O)c2ccccc2oc1=O (configuration not stated)
- GI50 [1]: > 100 µM (inactive)
- GI50 [2]: > 100 µM (inactive)
- GI50 [3]: > 100 µM (inactive)
- GI50 [4]: > 100 µM (inactive)
- GI50 [5]: > 100 µM (inactive)
- GI50 [6]: > 100 µM (inactive)
- GI50 [7]: > 100 µM (inactive)
- GI50 [8]: > 100 µM (inactive)
- GI50 [9]: > 100 µM (inactive)
- GI50 [10]: 44.2 µM (inactive)
- GI50 [11]: > 100 µM (inactive)
- GI50 [12]: > 100 µM (inactive)
- GI50 [13]: > 100 µM
- GI50 [14]: > 100 µM (inactive)
- GI50 [15]: > 100 µM (inactive)
- GI50 [16]: > 100 µM (inactive)
- GI50 [17]: 49 µM (inactive)
- GI50 [18]: > 100 µM (inactive)
- GI50 [19]: > 100 µM (inactive)
- GI50 [20]: > 100 µM (inactive)
- GI50 [21]: > 100 µM (inactive)
- GI50 [22]: > 100 µM (inactive)
- GI50 [23]: > 100 µM (inactive)
- GI50 [24]: > 100 µM (inactive)
- GI50 [25]: > 100 µM (inactive)
- GI50 [26]: > 100 µM (inactive)
- GI50 [27]: > 100 µM (inactive)
- GI50 [28]: > 100 µM (inactive)
- GI50 [29]: > 100 µM (inactive)
- GI50 [30]: > 100 µM (inactive)
- GI50 [31]: > 100 µM (inactive)
- GI50 [32]: > 100 µM (inactive)
- GI50 [33]: > 100 µM (inactive)
- GI50 [34]: > 100 µM (inactive)
- GI50 [35]: > 100 µM (inactive)
- GI50 [36]: > 100 µM (inactive)
- GI50 [37]: > 100 µM (inactive)
- GI50 [38]: > 100 µM (inactive)
- GI50 [39]: > 100 µM (inactive)
- GI50 [40]: > 100 µM (inactive)
- GI50 [41]: > 100 µM (inactive)
- GI50 [42]: > 100 µM (inactive)
- GI50 [43]: > 100 µM (inactive)
- GI50 [44]: > 100 µM (inactive)
- GI50 [45]: > 100 µM (inactive)
- GI50 [46]: > 100 µM (inactive)
- GI50 [47]: > 100 µM (inactive)
- GI50 [48]: 45.3 µM (inactive)
- GI50 [49]: > 100 µM (inactive)
- GI50 [50]: > 100 µM (inactive)
- GI50 [51]: > 100 µM (inactive)
- GI50 [52]: > 100 µM (inactive)
- GI50 [53]: > 100 µM (inactive)
- GI50 [54]: > 100 µM (inactive)
- GI50 [55]: > 100 µM (inactive)

Structure (SMILES): CCN(CC)c1cccc2c1C1(O)CCC3(CC21)OCCCCO3 (configuration not stated)
- GI50 [1]: 74 µM (inactive)
- GI50 [56]: 56.2 µM (inactive)
- GI50 [2]: 49 µM (inactive)
- GI50 [3]: 91.8 µM (inactive)
- GI50 [4]: > 100 µM (inactive)
- GI50 [5]: 90.4 µM (inactive)
- GI50 [6]: > 100 µM (inactive)
- GI50 [7]: 57.1 µM (inactive)
- GI50 [8]: 94.6 µM (inactive)
- GI50 [9]: > 100 µM (inactive)
- GI50 [11]: > 100 µM (inactive)
- GI50 [12]: 49.3 µM (inactive)
- GI50 [13]: 66.8 µM
- GI50 [14]: > 100 µM (inactive)
- GI50 [15]: > 100 µM (inactive)
- GI50 [16]: > 100 µM (inactive)
- GI50 [18]: 33.3 µM (inactive)
- GI50 [19]: 67.1 µM (inactive)
- GI50 [20]: > 100 µM (inactive)
- GI50 [21]: 68.4 µM (inactive)
- GI50 [22]: 57.8 µM (inactive)
- GI50 [23]: 50.8 µM (inactive)
- GI50 [24]: > 100 µM (inactive)
- GI50 [25]: > 100 µM (inactive)
- GI50 [26]: 91.4 µM (inactive)
- GI50 [27]: > 100 µM (inactive)
- GI50 [28]: > 100 µM (inactive)
- GI50 [29]: 63.4 µM (inactive)
- GI50 [30]: > 100 µM (inactive)
- GI50 [31]: 53.2 µM (inactive)
- GI50 [32]: > 100 µM (inactive)
- GI50 [33]: 84.9 µM (inactive)
- GI50 [34]: > 100 µM (inactive)
- GI50 [35]: > 100 µM (inactive)
- GI50 [36]: 44.9 µM (inactive)
- GI50 [37]: 77.6 µM (inactive)
- GI50 [38]: 15.3 µM (inactive)
- GI50 [39]: > 100 µM (inactive)
- GI50 [40]: 28.8 µM (inactive)
- GI50 [41]: 35.3 µM (inactive)
- GI50 [42]: > 100 µM (inactive)
- GI50 [43]: > 100 µM (inactive)
- GI50 [44]: 55.6 µM (inactive)
- GI50 [45]: 71.9 µM (inactive)
- GI50 [46]: 74.1 µM (inactive)
- GI50 [47]: 18 µM (inactive)
- GI50 [48]: 36.5 µM (inactive)
- GI50 [49]: > 100 µM (inactive)
- GI50 [51]: 69.3 µM (inactive)
- GI50 [52]: > 100 µM (inactive)
- GI50 [53]: 39.9 µM (inactive)
- GI50 [54]: > 100 µM (inactive)
- GI50 [57]: > 100 µM (inactive)

Structure (SMILES): Cc1occ2c1C(=O)CC1C2[C@@H](O)CC2C(C)(C)CCC[C@]12C (some centres not stated)
- GI50 [1]: > 100 µM (inactive)
- GI50 [56]: > 100 µM (inactive)
- GI50 [2]: > 100 µM (inactive)
- GI50 [3]: > 100 µM (inactive)
- GI50 [5]: 42.7 µM (inactive)
- GI50 [6]: > 100 µM (inactive)
- GI50 [7]: > 100 µM (inactive)
- GI50 [8]: 82.8 µM (inactive)
- GI50 [10]: > 100 µM (inactive)
- GI50 [11]: > 100 µM (inactive)
- GI50 [12]: > 100 µM (inactive)
- GI50 [13]: > 100 µM
- GI50 [14]: 44.7 µM (inactive)
- GI50 [15]: > 100 µM (inactive)
- GI50 [16]: > 100 µM (inactive)
- GI50 [17]: > 100 µM (inactive)
- GI50 [18]: > 100 µM (inactive)
- GI50 [19]: > 100 µM (inactive)
- GI50 [20]: > 100 µM (inactive)
- GI50 [21]: > 100 µM (inactive)
- GI50 [24]: > 100 µM (inactive)
- GI50 [25]: > 100 µM (inactive)
- GI50 [26]: > 100 µM (inactive)
- GI50 [27]: 40 µM (inactive)
- GI50 [28]: > 100 µM (inactive)
- GI50 [29]: > 100 µM (inactive)
- GI50 [30]: > 100 µM (inactive)
- GI50 [32]: 56.5 µM (inactive)
- GI50 [34]: 98.9 µM (inactive)
- GI50 [36]: > 100 µM (inactive)
- GI50 [37]: 55.6 µM (inactive)
- GI50 [38]: > 100 µM (inactive)
- GI50 [39]: > 100 µM (inactive)
- GI50 [40]: > 100 µM (inactive)
- GI50 [41]: > 100 µM (inactive)
- GI50 [42]: > 100 µM (inactive)
- GI50 [44]: > 100 µM (inactive)
- GI50 [45]: > 100 µM (inactive)
- GI50 [46]: > 100 µM (inactive)
- GI50 [47]: > 100 µM (inactive)
- GI50 [48]: > 100 µM (inactive)
- GI50 [49]: > 100 µM (inactive)
- GI50 [50]: 67.5 µM (inactive)
- GI50 [51]: > 100 µM (inactive)
- GI50 [53]: 94.8 µM (inactive)
- GI50 [54]: > 100 µM (inactive)
- GI50 [55]: 95.7 µM (inactive)
- GI50 [57]: > 100 µM (inactive)
- GI50 [58]: > 100 µM (inactive)
